Experimental data reported in patent US20250074876A1, “DIPHENOLIC COMPOUNDS AND PREPARATION METHODS THEREOF” (PURPANA (BEIJING) TECHNOLOGIES CO., LTD., priority 2022, published 2025).

Assays:
melanin cell = assay: B-2 Inhibition test of cell melanin synthesis (chromogenic method); type: cell-based; details: for inhibitory effect on cellular melanin synthesis (in words): at a lower concentration (no more than 0.10% g/m L); for inhibitory effect on cellular melanin synthesis compared with kojic acid: comparison with kojic acid
Method: According to cytotoxicity test data, an inhibition test of cell melanin synthesis was performed within the range allowed by cytotoxicity. The range allowed by cytotoxicity is a range of sample concentration corresponding to a relative cell viability more than 60% in the cytotoxicity test. The samples were grouped according to different concentrations, and a test index was melanin content, a test model was melanin cell, and a detection method is a chromogenic method. Cells at logarithmic growth phase were collected, and the cells were inoculated into 24-well plates at a cell density of 2×10^5 cells/well. After 24 h of incubation in the incubator (37° C., 5% CO2), according to the results of cytotoxicity, the drug was added according to the concentration requirements. The untreated cells were used as a blank control, and three parallel controls were set up in each group. After the drug added, the incubation was continued in the incubator (37° C., 5% CO2) for 48 h. The supernatant was discarded, 1 mL of 1 M NaOH containing 10% DMSO was added, and the plate was placed in a thermostatic oven for incubation at 60° C. for 1 h. After restoring to a room temperature, 200 μL mixed solution of each well was transferred to a 96-well plate, and 1 M NaOH containing 10% DMSO was used as a blank control. The absorbance value was read at 405 nm, and the inhibition rate of cellular melanin synthesis was calculated according to the following equation (5): […]

[1] = test system: human melanoma cells (G361); assay: B-1 Cytotoxicity test (MTT, relative cell viability); type: cell-based; details: 24 h
Method: • a) Cell inoculation: human melanoma cells (G361) were inoculated into 96-well plates at a density of 1×10^4 cells/well, and the 96-well plates were placed in an incubator (37° C., 5% CO2) overnight for incubation. • b) Experimental grouping: the experiments were set up with a zeroing group, a control group, a positive control group, and a sample group. In the sample group, each sample was set up with different concentration gradients, and 3 replicate wells were set up under each concentration gradient. • c) Solution preparation: different concentrations of sample working solution were prepared according to the concentrations in Table 4. • d) Drug administration: a drug administration was performed until the cell plating rate in the 96-well plate reaches 40%-60%. In the control group, 200 μL of culture medium containing 10% PBS (Gibco) […] was added to each well; in the positive control group, 200 μL of culture medium containing 10% DMSO was added to each well; in the sample group, 200 μL of culture medium containing the corresponding concentration of sample was added to each well; in the zeroing group, no cell was inoculated and only 200 μL of cell culture medium was added. After the drug administration completed, the 96-well plates were placed in an incubator (37° C., 5% CO2) for incubation. • e) Detection: after incubation for 24 h, the supernatant was discarded, and MTT working solution (0.5 mg/mL) was added and incubated at 37° C. in the dark for 4 h. After incubation, the supernatant was discarded, and 100 μL DMSO was added into each well and the OD value was obtained at 490 nm. • f) Relative cell viability was calculated by the following equation (4): […]

Question: How did the “inhibitory effect on cellular melanin synthesis (in words)” value (“inhibitory effect … (in words)” below) (melanin cell) turn out when `CC(c1ccc(O)cc1O)N1CCCCC1=O` (centres unmarked) [I-a] was run?
Answer: have an inhibitory effect on cellular melanin synthesis

Question: And the “inhibitory effect on cellular melanin synthesis compared with kojic acid” value (from here on “inhibitory effect … compared with kojic acid”) (melanin cell)?
Answer: superior to that of kojic acid

Question: With `CCC(c1ccc(O)cc1O)N1CCCC1=O` (centres unmarked) [I-d] as the compound, how does the “inhibitory effect … (in words)” value (melanin cell) read?
Answer: have an inhibitory effect on cellular melanin synthesis

Question: And the “inhibitory effect … compared with kojic acid” value (melanin cell)?
Answer: superior to that of kojic acid

Question: Which “inhibitory effect … (in words)” value (melanin cell) does the source give for `CCCC(c1ccc(O)cc1O)N1CCCCC1=O` (centres unmarked) [I-e] here?
Answer: have an inhibitory effect on cellular melanin synthesis

Question: Which “inhibitory effect … (in words)” value (melanin cell) does the source give for `CCCC(c1ccc(O)cc1O)N1CCCC1=O` (centres unmarked) [I-f] here?
Answer: have an inhibitory effect on cellular melanin synthesis

Question: What does the source list for `CC(c1ccc(O)cc1O)N1CCCCCC1=O` (centres unmarked) [I-g]?
Answer: inhibitory effect on cellular melanin synthesis (in words) (melanin cell): have an inhibitory effect on cellular melanin synthesis; Relative cell viability ([1]; human, 0.007813 % (g/mL)): 117.8165%; Relative cell viability ([1]; human, 0.015625 % (g/mL)): 120.6987%; Relative cell viability ([1]; human, 0.03125 % (g/mL)): 107.8966%; Relative cell viability ([1]; human, 0.125 % (g/mL)): 113.8122%; Relative cell viability ([1]; human, 0.25 % (g/mL)): 120.9409%; Relative cell viability ([1]; human, 0.5 % (g/mL)): 107.9874%

Question: Which “inhibitory effect … (in words)” value (melanin cell) does the source give for `CC(c1ccc(O)cc1O)N1CCCC1=O` (centres unmarked) [I-h] here?
Answer: have an inhibitory effect on cellular melanin synthesis

Question: How did the “inhibitory effect … (in words)” value (melanin cell) turn out when `CC(c1ccccc1)c1cc(C(C)c2ccccc2)c(O)cc1O` (centres unmarked) [V-a] was run?
Answer: have an inhibitory effect on cellular melanin synthesis

Question: And the “inhibitory effect … compared with kojic acid” value (melanin cell)?
Answer: superior to that of kojic acid

Question: How did the “inhibitory effect … (in words)” value (melanin cell) turn out when `CC(c1cc(C(C)N2CCCC2=O)c(O)cc1O)N1CCCC1=O` (centres unmarked) [V-c] was run?
Answer: have an inhibitory effect on cellular melanin synthesis

Question: With `CC(c1ccccc1)c1ccc(O)cc1O` (centres unmarked) [control group, phenylethyl resorcinol, reference compound] as the compound, how does the Relative cell viability ([1]; G361 cells, MTT, sample concentration 0.007813 % (g/mL)) read?
Answer: 106.32%

Question: And the Relative cell viability ([1]; G361 cells, MTT, sample concentration 0.015625 % (g/mL))?
Answer: 114.68%

Question: And the Relative cell viability ([1]; G361 cells, MTT, sample concentration 0.03125 % (g/mL))?
Answer: 101.15%

Question: And the Relative cell viability ([1]; G361 cells, MTT, sample concentration 0.125 % (g/mL))?
Answer: 100.10%

Question: And the Relative cell viability ([1]; G361 cells, MTT, sample concentration 0.25 % (g/mL))?
Answer: 106.07%

Question: What about the Relative cell viability ([1]; G361 cells, MTT, sample concentration 0.5 % (g/mL)) of the same compound?
Answer: 96.77%
